{
  "source": "patent US11590129B2",
  "about": "“Combination therapy with an antitumor alkaloid” (PHARMA MAR, S.A., priority 2010, dated 2023)",
  "key": {"[1]": {"test_system": "HT1080 tumors", "experiment": "Human fibrosarcoma (HT1080) orthotopically implanted in athymic nude mice, total diameter (tumor+leg) % T/C", "format": "in vivo", "description": "Female athymic nude mice (Harlan Laboratories Models, S.L. (Barcelona, Spain) were utilized for all experiments. Animals were housed in individually ventilated cages, up to ten per cage in a 12-hour light-dark cycle at 21-23° C. and 40-60% humidity. The mice were allowed free access to irradiated standard rodent diet and sterilized water. Animals were acclimated for at least 5 days prior to tumor implantation with a tumor cell suspension.\nHT1080 cells were grown at 37° C. with 5% CO2 in Minimum Essential Medium Eagle (MEME). Each animal was orthotopically implanted into gastroecnemius muscle by an intramuscular injection using 26G needle and a 1 cc syringe, with 5×10^6 HT1080 cells, from in vitro passage 9, suspended in serum free medium, without antibiotics.\nTotal diameter (tumor+leg) measurements were determined by using digital caliper (Fowler Sylvac, S235PAT). This total diameter and animal body weights were measured 2-3 times per week starting from the first day of treatment.\nTreatment tolerability was assessed by monitoring body weight evolution, clinical signs as well as evidences of local damage in the injection site.\nPM01183 was provided in the form of vials of lyophilized PM01183 cake which was reconstituted with water for infusion to a concentration of 0.2 mg/mL. The PM01183 stock solution was further diluted in 5% glucose solution for injection to the dosing formulation concentrations. Dacarbazine was provided in the form of a solution prepared by diluting the product with 5% glucose solution for injection to the target final concentration.\nDose level groups were administered either as single agents or in combination.\nComparison of the median total diameter (tumor+leg) in the treatment groups (T) to the median total diameter (tumor+leg) in the control group (T/C×100%) was used for evaluation of the antitumor efficacy."}, "[2]": {"test_system": "PANC-1 human pancreatic carcinoma cell line", "experiment": "cells", "conditions": "Homo sapiens, PANC-1, 72 h", "how_it_was_run": "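Cells seeded at 5,000/well, left 24 h drug-free, then exposed to test compounds for 72 h. Viability read by MTT reduction (MTT added for 8 h at 37° C, formazan dissolved in DMSO).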"}, "[3]": {"conditions": "PM01183 0.135 mg/kg iv days 0,7"}},
  "data": [
    {"smiles": "COc1ccc2[nH]c3c(c2c1)CCN[C@]31CS[C@@H]2c3c(OC(C)=O)c(C)c4c(c3[C@H](COC1=O)N1[C@@H]2[C@H]2c3c(cc(C)c(OC)c3O)C[C@@H]([C@@H]1O)N2C)OCO4", "note": "[PM01183]", "values": [
      {"measurement": "% T/C on day 0", "setting": "[1]; PM01183 0.045 mg/kg", "result": 100, "unit": "%"},
      {"measurement": "% T/C on day 2", "setting": "[1]; PM01183 0.045 mg/kg", "result": 77.8, "unit": "%"},
      {"measurement": "% T/C on day 4", "setting": "[1]; PM01183 0.045 mg/kg", "result": 74.3, "unit": "%"},
      {"measurement": "% T/C on day 7", "setting": "[1]; PM01183 0.045 mg/kg", "result": 94.2, "unit": "%"},
      {"measurement": "% T/C on day 9", "setting": "[1]; PM01183 0.045 mg/kg", "result": 80.0, "unit": "%"},
      {"measurement": "% T/C on day 11", "setting": "[1]; PM01183 0.045 mg/kg", "result": 74.0, "unit": "%"},
      {"measurement": "% T/C on day 14", "setting": "[1]; PM01183 0.045 mg/kg", "result": 80.5, "unit": "%"},
      {"measurement": "% T/C on day 16", "setting": "[1]; PM01183 0.045 mg/kg", "result": 91.1, "unit": "%"},
      {"measurement": "% T/C on day 0", "setting": "[1]; PM01183 0.09 mg/kg", "result": 100, "unit": "%"},
      {"measurement": "% T/C on day 2", "setting": "[1]; PM01183 0.09 mg/kg", "result": 66.7, "unit": "%"},
      {"measurement": "% T/C on day 4", "setting": "[1]; PM01183 0.09 mg/kg", "result": 57.1, "unit": "%"},
      {"measurement": "% T/C on day 7", "setting": "[1]; PM01183 0.09 mg/kg", "result": 65.4, "unit": "%"},
      {"measurement": "% T/C on day 9", "setting": "[1]; PM01183 0.09 mg/kg", "result": 48.0, "unit": "%"},
      {"measurement": "% T/C on day 11", "setting": "[1]; PM01183 0.09 mg/kg", "result": 42.7, "unit": "%"},
      {"measurement": "% T/C on day 14", "setting": "[1]; PM01183 0.09 mg/kg", "result": 45.8, "unit": "%"},
      {"measurement": "% T/C on day 16", "setting": "[1]; PM01183 0.09 mg/kg", "result": 56.4, "unit": "%"},
      {"measurement": "% T/C (median total diameter, tumor+leg) on day 9", "setting": "[1]; [3]", "result": 36.0, "unit": "%"},
      {"measurement": "% T/C (median total diameter, tumor+leg) on day 11", "setting": "[1]; [3]", "result": 30.2, "unit": "%"},
      {"measurement": "% T/C (median total diameter, tumor+leg) on day 14", "setting": "[1]; [3]", "result": 33.0, "unit": "%"},
      {"measurement": "% T/C (median total diameter, tumor+leg) on day 16", "setting": "[1]; [3]", "result": 41.9, "unit": "%"},
      {"measurement": "% T/C on day 0", "setting": "[1]; PM01183 0.135 mg/kg", "result": 100, "unit": "%"},
      {"measurement": "% T/C on day 2", "setting": "[1]; PM01183 0.135 mg/kg", "result": 63.0, "unit": "%"},
      {"measurement": "% T/C on day 4", "setting": "[1]; PM01183 0.135 mg/kg", "result": 62.9, "unit": "%"},
      {"measurement": "% T/C on day 7", "setting": "[1]; PM01183 0.135 mg/kg", "result": 48.1, "unit": "%"},
      {"measurement": "% T/C on day 9", "setting": "[1]; PM01183 0.135 mg/kg", "result": 36.0, "unit": "%"},
      {"measurement": "% T/C on day 11", "setting": "[1]; PM01183 0.135 mg/kg", "result": 30.2, "unit": "%"},
      {"measurement": "% T/C on day 14", "setting": "[1]; PM01183 0.135 mg/kg", "result": 33.0, "unit": "%"},
      {"measurement": "% T/C on day 16", "setting": "[1]; PM01183 0.135 mg/kg", "result": 41.9, "unit": "%"},
      {"measurement": "% T/C (median total diameter, tumor+leg) on day 9", "setting": "[1]; PM01183 0.18 mg/kg iv days 0,7", "result": 26.7, "unit": "%"},
      {"measurement": "% T/C (median total diameter, tumor+leg) on day 11", "setting": "[1]; PM01183 0.18 mg/kg iv days 0,7", "result": 11.5, "unit": "%"},
      {"measurement": "% T/C (median total diameter, tumor+leg) on day 14", "setting": "[1]; PM01183 0.18 mg/kg iv days 0,7", "result": 21.2, "unit": "%"},
      {"measurement": "% T/C (median total diameter, tumor+leg) on day 16", "setting": "[1]; PM01183 0.18 mg/kg iv days 0,7", "result": 30.6, "unit": "%"},
      {"measurement": "% T/C on day 0", "setting": "[1]; PM01183 0.18 mg/kg", "result": 100, "unit": "%"},
      {"measurement": "% T/C on day 2", "setting": "[1]; PM01183 0.18 mg/kg", "result": 59.3, "unit": "%"},
      {"measurement": "% T/C on day 4", "setting": "[1]; PM01183 0.18 mg/kg", "result": 40.0, "unit": "%"},
      {"measurement": "% T/C on day 7", "setting": "[1]; PM01183 0.18 mg/kg", "result": 26.9, "unit": "%"},
      {"measurement": "% T/C on day 9", "setting": "[1]; PM01183 0.18 mg/kg", "result": 26.7, "unit": "%"},
      {"measurement": "% T/C on day 11", "setting": "[1]; PM01183 0.18 mg/kg", "result": 11.5, "unit": "%"},
      {"measurement": "% T/C on day 14", "setting": "[1]; PM01183 0.18 mg/kg", "result": 21.2, "unit": "%"},
      {"measurement": "% T/C on day 16", "setting": "[1]; PM01183 0.18 mg/kg", "result": 30.6, "unit": "%"},
      {"measurement": "IC50", "setting": "[2]", "result": 2.8, "unit": "nM"}
    ]}
  ]
}
